In patent US11339144B2 (Navitor Pharmaceuticals, Inc., priority 2017, dated 2022) one finds IC50 data, which are given here for 61 compounds.

The target in the experiment is HA-GST-Rheb (GTP-γ-S loaded) activating mTORC1 (Homo sapiens (Human), UniProt Q15382). Description: Rheb-dependent in vitro kinase assay (Rheb-IVK; LanthaScreen or Western readout). It counts as biochemical. As to conditions: Rheb-dependent in vitro kinase assay; read-out: IVK IC50. For orientation: Time-resolved FRET reads energy transfer from a long-lived donor to a nearby acceptor.
Chain of HA-GST-Rheb (GTP-γ-S loaded) activating mTORC1 (Q15382 1-181): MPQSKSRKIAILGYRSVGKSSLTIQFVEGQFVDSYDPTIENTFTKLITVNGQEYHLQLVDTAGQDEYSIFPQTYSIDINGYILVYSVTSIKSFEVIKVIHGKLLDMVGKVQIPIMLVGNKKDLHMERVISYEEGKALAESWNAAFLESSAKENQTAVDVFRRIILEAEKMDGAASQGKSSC
The IC50 is the concentration that inhibits the measured activity by half. In the case of `OCc1nc2cc(Cl)c(OCc3ccccc3)cc2n1Cc1nc[nH]n1` [I-402], the half-inhibitory concentration (IC50) was greater than 100 µM.
Then `OCc1nc2cc(OCc3ccccc3)c(Cl)cc2n1Cc1nc[nH]n1` [I-403, (1-((1H-1,2,4-triazol-3-yl)methyl)-5-(benzyloxy)-6-chloro-1H-benzo[d]imidazol-2-yl)methanol], with 100 to 300 µM.
Then `OCc1nc2c(Oc3ccccc3)cc(Cl)cc2[nH]1` [I-404], with greater than 100 µM; and `OCc1nc2c(OCc3cncnc3O)c(Cl)c(Cl)cc2[nH]1` [I-405], with greater than 100 µM.
On to `OCc1nc2c(Br)cc(Oc3ccccc3)cc2n1Cc1nc[nH]n1` [I-406], for which the IC50 was greater than 100 µM.
For the compound `OCc1nc2c(Oc3ccccc3Cl)cccc2n1Cc1nc[nH]n1` [I-407, (1-((1H-1,2,4-triazol-3-yl)methyl)-4-(2-chlorophenoxy)-1H-benzo[d]imidazol-2-yl)methanol], the 50% inhibitory concentration (IC50) is greater than 100 µM.
Take `OCc1nc2c(Oc3ccc(Cl)cc3)cccc2n1Cc1nc[nH]n1` [I-408]: the IC50 is greater than 100 µM.
For `Nc1ncncc1COc1c(Cl)c(Cl)cc2[nH]c(CO)nc12` [I-409], the 50% inhibitory concentration (IC50) is greater than 100 µM.
Consider `Clc1ccc2c(c1)nc(-c1ncco1)n2Cc1ccc(-c2nn[nH]n2)cc1` [I-410], for which the concentration for half-maximal inhibition (IC50) is greater than 100 µM.
On to `CCn1c(CO)nc2cc(OCc3ccccc3)cc(Cl)c21` [I-412], for which the 50% inhibitory concentration (IC50) is greater than 100 µM.
Then `CCn1c(CO)nc2c(Cl)cc(OCc3ccccc3)cc21` [I-413], with greater than 100 µM.
Then `CCOCc1nc2cc(OCc3ccccc3)cc(Cl)c2n1CC` [I-414], with greater than 100 µM.
The result for `CCOCc1nc2c(Cl)cc(OCc3ccccc3)cc2n1CC` [I-415] reads greater than 100 µM.
Consider `CCn1c(CO)nc2cc(OCc3ccccc3)ccc21` [I-416], for which the IC50 was greater than 100 µM.
`CCn1c(CO)nc2ccc(OCc3ccccc3)cc21` [I-417]: the IC50 is greater than 100 µM.
Take `OCc1nc2c(Oc3ccccc3)c(Cl)ccc2[nH]1` [I-418, (5-chloro-4-phenoxy-1H-benzo[d]imidazol-2-yl)methanol]: the IC50 was 100 to 300 µM.
Take `O=C1CCC(COc2c(Cl)c(Cl)cc3[nH]c(CO)nc23)N1` (stereo not shown) [I-419]: the half-inhibitory concentration (IC50) was greater than 100 µM.
The result for `Nc1ccnc(COc2c(Cl)c(Cl)cc3[nH]c(CO)nc23)n1` [I-420] reads greater than 100 µM; that for `c1ccc(Oc2cccc3nc(-c4ncco4)n(Cc4ccc(-c5nn[nH]n5)cc4)c23)cc1` [I-422], greater than 100 µM; that for `Nc1nccc(COc2c(Cl)c(Cl)cc3[nH]c(CO)nc23)n1` [I-423], greater than 100 µM.
As to `OCc1nc2c(OCc3ccnc(Cl)n3)c(Cl)c(Cl)cc2[nH]1` [I-424], the concentration for half-maximal inhibition (IC50) was greater than 100 µM.
With `Cn1c(CO)nc2cc(Cl)c(OCc3ccccc3)cc21` [I-426], the concentration for half-maximal inhibition (IC50) is greater than 100 µM.
On to `Clc1ccc2[nH]c(-c3ncco3)nc2c1Oc1ccccc1` [I-427, 2-(5-chloro-4-phenoxy-1H-benzo[d]imidazol-2-yl)oxazole], for which the IC50 was 100 to 300 µM.
Then `OCc1nc2c(Br)cc(Oc3ccccc3)cc2[nH]1` [I-428, (4-bromo-6-phenoxy-1H-benzo[d]imidazol-2-yl)methanol], with greater than 100 µM; and `COc1ccc(Cn2cnc3c(Br)cc(Oc4ccccc4)cc32)cc1` [I-429], with greater than 100 µM; and `CCn1c(CO)nc2cc(OCCc3ccccc3)c(Cl)cc21` [I-430], with greater than 100 µM.
The result for `CCn1c(CO)nc2cc(Cl)c(OCCc3ccccc3)cc21` [I-431] reads greater than 100 µM.
On to `CCn1c(CO)nc2cc(OCc3ccccc3Cl)c(Cl)cc21` [I-432], for which the concentration for half-maximal inhibition (IC50) was greater than 100 µM.
Consider `CCn1c(CO)nc2cc(Cl)c(OCc3ccccc3Cl)cc21` [I-433], for which the IC50 is greater than 100 µM.
Consider `CCn1cnc2cc(OCc3ccccc3)c(Cl)cc21` [I-434, 5-(benzyloxy)-6-chloro-1-ethyl-1H-benzo[d]imidazole], for which the IC50 fell in the range of 100 to 300 µM.
The result for `CCn1cnc2cc(Cl)c(OCc3ccccc3)cc21` [I-435] reads greater than 100 µM.
Regarding `Nc1ncccc1COc1c(Cl)c(Cl)cc2[nH]c(CO)nc12` [I-436], the IC50 was greater than 100 µM.
Then `Clc1cc2nc(-c3ncco3)n(Cc3cccc(-c4nn[nH]n4)c3)c2cc1Cl` [I-438], with greater than 100 µM; and `N#CCc1nc2c(Oc3ccccc3)c(Cl)ccc2[nH]1` [I-441], with greater than 100 µM.
Consider `CCn1c(CO)nc2cc(OCc3cccc(F)c3)c(Cl)cc21` [I-442], for which the half-inhibitory concentration (IC50) is greater than 100 µM.
In the case of `CCn1c(CO)nc2cc(Cl)c(OCc3cccc(F)c3)cc21` [I-443], the IC50 is greater than 100 µM.
Turning to `CCn1c(CO)nc2cc(OCc3ccc(F)cc3)c(Cl)cc21` [I-444], the half-inhibitory concentration (IC50) is greater than 100 µM.
Then `CCn1c(CO)nc2cc(Cl)c(OCc3ccc(F)cc3)cc21` [I-445], with greater than 100 µM.
For the compound `O=C(O)c1cccc(Cn2c(-c3ncco3)nc3cc(Cl)c(Cl)cc32)c1` [I-446], the IC50 was greater than 100 µM.
In the case of `NC(=O)c1cccc(Cn2c(-c3ncco3)nc3cc(Cl)c(Cl)cc32)c1` [I-447], the half-inhibitory concentration (IC50) was greater than 100 µM.
Then `CCn1c(CO)nc2cc(Cl)c(OCc3cccc(Cl)c3)cc21` [I-448], with greater than 100 µM.
`CCn1c(CO)nc2cc(OCc3ccc(Cl)cc3)c(Cl)cc21` [I-449]: the IC50 is greater than 100 µM.
Regarding `CCn1c(CO)nc2cc(Cl)c(OCc3ccc(Cl)cc3)cc21` [I-450], the half-maximal inhibitory concentration (IC50) was greater than 100 µM.
The result for `NC(=O)c1ccc(Cn2c(-c3ncco3)nc3cc(Cl)c(Cl)cc32)cc1` [I-451] reads greater than 100 µM; that for `O=C(O)c1ccc(Cn2c(-c3ncco3)nc3cc(Cl)c(Cl)cc32)cc1` [I-452], greater than 100 µM.
On to `N#Cc1ccc(Cn2c(-c3ncco3)nc3cc(Cl)c(Cl)cc32)cc1` [I-453], for which the IC50 is greater than 100 µM.
Then `CCn1c(CO)nc2cc(Cl)c(OCc3ccccc3F)cc21` [I-454], with greater than 100 µM.
Then `CCn1c(CO)nc2cc(Oc3ccccc3)c(Cl)cc21` [I-455], with greater than 100 µM; and `CCn1c(CO)nc2cc(Cl)c(Oc3ccccc3)cc21` [I-456], with greater than 100 µM.
`OCc1nc2cc(OCc3ccccc3)c(Cl)cc2n1CC(F)(F)F` [I-457]: the concentration for half-maximal inhibition (IC50) is greater than 100 µM.
The result for `OCc1nc2cc(Cl)c(OCc3ccccc3)cc2n1CC(F)(F)F` [I-458] reads greater than 100 µM; that for `N#Cc1cccc(COc2c(Cl)c(Cl)cc3[nH]c(CO)nc23)c1` [I-459], greater than 100 µM; that for `OCc1nc2cc(Cl)c(Cl)c(OCC3CCNC3)c2[nH]1` (stereo not shown) [I-460], greater than 100 µM.
As for `CCn1c(CO)nc2cc(OCc3ccccc3F)c(Cl)cc21` [I-461], the concentration for half-maximal inhibition (IC50) is greater than 100 µM.
Then `OCc1nc2cc(Cl)c(Cl)c(OCC3CCCCN3)c2[nH]1` (stereo not shown) [I-462], with greater than 100 µM.
Then `N#Cc1cccc(Cn2c(-c3ncco3)nc3cc(Cl)c(Cl)cc32)c1` [I-463], with greater than 100 µM; and `Nc1cccc(COc2c(Cl)c(Cl)cc3nc(CO)[nH]c23)n1` [I-464], with greater than 100 µM; and `O=C1CCCC(COc2c(Cl)c(Cl)cc3[nH]c(CO)nc23)N1` (stereo not shown) [I-465, 6-((5,6-dichloro-2-(hydroxymethyl)-1H-benzo[d]imidazol-4-yloxy)methyl)piperidin-2-one], with 100 to 300 µM.
The result for `OCc1nc2cc(OCc3ccccc3)c(Cl)cc2n1Cc1ccccc1` [I-466] reads greater than 100 µM; that for `OCc1nc2cc(Cl)c(OCc3ccccc3)cc2n1Cc1ccccc1` [I-467], greater than 100 µM.
`OCc1nc2c(OCC3CCCN3)c(Cl)c(Cl)cc2[nH]1` (stereo not shown) [I-468]: the half-inhibitory concentration (IC50) is greater than 100 µM.
